Measured values from patent US10000791B2, “Measurement method for human pancreatic lipase activity” (ASAHI KASEI PHARMA CORPORATION, priority 2013, dated 2018).

What was measured:
Format in all cases: biochemical
human pancreatic lipase [1] = assay: pH dependence of human pancreatic lipase activity in the presence of bile acids (diglyceride substrate, UV method); details: for pH for giving a maximum value of the activity (apparent optimum pH) / degree of the activation of human pancreatic lipase: pooled serum; for pH for giving a maximum value of the activity (apparent optimum pH): non-conjugated bile acid singly, pH 7.2-8.5; for degree of the activation of human pancreatic lipase: conjugated bile acid singly, 40 mmol/L in R-1
Protocol: After weighing 1,2-dioleoyl glycerol (DODG) (manufactured by Nippon Fine Chemical Co., Ltd.) to attain a concentration of 9.32 mmol/L when dissolved, 1% polyoxyethylene (10) nonyl phenyl ether (NPE) (manufactured by Wako Pure Chemical Industries Ltd.) containing 1.66 mmol/L of MES (manufactured by Dojindo Laboratories) was added thereto to be dissolved therein by stirring at 37° C. for 2 hours, and the resultant was allowed to stand still in ice for 2 hours or more. The thus obtained solution was used as a substrate original liquid.
The above-described diglyceride original liquid was used for preparing a “substrate stock solution” having the following composition:
A “first reaction solution (R-1)” having the following composition was prepared:
A “second reaction solution (R-2)” having the following composition was prepared:
A “second reaction solution (R-2) for sample blank” having the following composition was prepared:
(§1) A mixture of the substrate stock solution and the R-1 in a proportion of 1:2 was used as a first reagent. The R-2 was directly used as a second reagent. As a sample, pooled serum or a control sample (a control containing a pancreatic lipase) was used. A proportion in amount among the sample, the first reagent and the second reagent was set as sample:first reagent:second reagent of 0.01 ml:0.18 ml:0.06 ml. The sample was added to the first reagent, the resultant mixture was heated at 37° C. for 5 minutes, the second reagent was added thereto, and a change rate of an absorbance at 340 nm based on reduced NADP was obtained at 37° C. from 3 minutes after the addition of the second reagent to 4 minutes after the addition, and then, the lipase activity was calculated by using a molecular extinction coefficient of 6300 L/mol·cm of the reduced NADP. Besides, as a sample blank, saline was used instead of a sample, an absorbance was measured by using the reagent for sample blank obtained by removing MGLPII from the second reagent, and a difference between the thus measured two values was defined as an enzyme activity value. For the measurement, Hitachi automatic analyzer Model H7170 or H7080 was used.
As a conjugated bile acid to be added to the R-1, sodium taurodeoxycholate (NaTDCA), sodium glycodeoxycholate (NaGDCA), sodium glycochenodeoxycholate (NaGCDCA), sodium taurochenodeoxycholate (NaTCDCA), sodium glycocholate (NaGCA), sodium taurocholate (NaTCA) and sodium tauroursodeoxycholate (NaTUDCA) all in a concentration of 40 mmol/L were selected, the R-1 was adjusted, by using BES (manufactured by Dojindo Laboratories) respectively to pH 6.8, 7.0, 7.2, 7.4, 7.8, and 8.0, and the human pancreatic lipase activity was measured by using these. The pH of the R-2 was adjusted to be equal to that of the R-1.
It is noted that the concentration of each non-conjugated bile acid was set to be 24 mmol/L in the R-1. Besides, BES was used for adjusting pH to 7.2, 7.6, 7.8 and 8.0, and Bicine was used for adjusting pH to 8.2 and 8.5.
(§2) Similarly to Example 1, a mixture of the substrate stock solution and the R-1 in a proportion of 1:2 was used as a first reagent. Except for this, the measurement was performed in the same manner as in Example 1.
Besides, NaTCA was also combined with a conjugated bile acid, NaTDCA, to examine the pH for giving a maximum value of the human pancreatic lipase activity (the apparent optimum pH). It is noted that a BES buffer was used for adjusting pH to 6.9, 7.2 and 7.7, and a Bicine buffer was used for adjusting pH to 7.95 and 8.2. In each of the combinations of NaGCA/NaDCA, NaTCA/NaDCA, NaTUDCA/NaDCA and NaTCA/NaTDCA, the concentration of each bile acid was set to 20 mmol/L in the R-1. With respect to the combination of NaTCA and NaTDCA, a concentration of 40 mmol/L of NaTDCA was used as a control.
The compositions of the reagents and the measurement operation were the same as those of Example 2.

human pancreatic lipase [2] = assay: lipase activity measured in control, normal and heparin-administered samples with each reagent (1,2-dioleoyl glycerol, UV method; Liquitech Lipase Color II for verification); design: lipase activity relative to (1) comparative example NaDCA (Table 1): concentration or dose not given beside the values; details: for lipase activity (Table 1): NaDCA pH 8.15, other bile salts pH 7.0; for lipase activity relative to (1) comparative example NaDCA (Table 1): pH 7.0; for lipase activity (Table 2): comparative example pH 8.15, present example pH 7.1, bile acid 40 mmol/L in R-1
Protocol: as §1, §2
A commercially available reagent for a resorufin colorimetric method, “Liquitech Lipase Color II” manufactured by Roche Diagnostics using 1,2-O-dilauryl-rac-glycerol-3-glutaric acid-(6-methylresorufin)ester (DGGR), which is regarded not to be influenced by a non-pancreatic lipase, such as a lipoprotein lipase or a hepatic lipase, appearing in blood due to administration of heparin, was used for verifying the effect of the present example. “Liquitech Lipase Color II” was used in accordance with the package insert, and a special calibrator was used for calculating the enzyme activity. […] The concentration of each bile acid used in the present example was set to be the same as that in the comparative example.
As samples, a control, non-heparin-administered samples (normal samples), and heparin-administered samples were used.
The compositions of the reagents were the same as those of Example 2. As a comparative example, NaDCA (in a concentration of 40 mmol/L in the R-1) was used as the bile acid, and the reaction solution was adjusted to pH 8.15 (by the Bicine buffer) for measuring a heparin-administered sample.
It is noted that CRM-001b containing a human pancreatic recombinant lipase dissolved not in distilled water but in a pooled serum was used as the calibrator to calculate the lipase activity.
As a bile acid of the present example and a reference example, NaTDCA was selected, and the pH dependence with the pH of a reaction solution changed in a range of 6.2 to 7.6 was examined. It is noted that a case of pH 7.6 was used as the reference example. An MES buffer was used for adjusting pH to 6.2 and 6.4, and the BES buffer was used for adjusting the other pHs. As samples, (six) control samples (controls each containing a pancreatic lipase) and (nine) heparin-administered samples were used. As a comparative example, NaDCA (in a concentration of 40 mmol/L in the R-1) was used as the bile acid, and a reaction solution having pH 8.15 (the Bicine buffer) was used. Besides, “Liquitech Lipase Color II” manufactured by Roche Diagnostics was used for verifying the effect of the present example.

human pancreatic lipase [3] = assay: pH dependence of human pancreatic lipase activity in the presence of bile acids (diglyceride substrate, UV method); details: human pooled serum; pH changed between 7.4 and 8.4 (Example 12)
Target sequence in this assay (P16233 17-465): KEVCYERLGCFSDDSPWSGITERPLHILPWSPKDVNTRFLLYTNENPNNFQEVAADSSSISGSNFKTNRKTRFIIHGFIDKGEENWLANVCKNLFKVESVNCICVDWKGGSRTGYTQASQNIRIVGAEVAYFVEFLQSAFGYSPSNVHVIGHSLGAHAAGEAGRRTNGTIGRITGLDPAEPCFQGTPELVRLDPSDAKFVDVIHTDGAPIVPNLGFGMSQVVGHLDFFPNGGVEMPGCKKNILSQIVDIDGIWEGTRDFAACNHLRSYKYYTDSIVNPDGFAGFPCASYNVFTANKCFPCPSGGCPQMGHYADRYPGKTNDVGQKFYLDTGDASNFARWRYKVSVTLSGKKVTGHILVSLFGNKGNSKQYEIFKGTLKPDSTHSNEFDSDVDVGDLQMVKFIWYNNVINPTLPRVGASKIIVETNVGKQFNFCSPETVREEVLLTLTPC
Target sequence in this assay (P02703 23-112 partner): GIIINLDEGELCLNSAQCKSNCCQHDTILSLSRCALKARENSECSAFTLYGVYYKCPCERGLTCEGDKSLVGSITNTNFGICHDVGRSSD

Compound: C[C@H](CCC(=O)[O-])[C@H]1CC[C@H]2[C@@H]3[C@H](O)C[C@@H]4C[C@H](O)CC[C@]4(C)[C@H]3CC[C@]12C.[Na+] [NaCDCA, sodium chenodeoxycholate]
- pH for giving a maximum value of the activity (apparent optimum pH) (human pancreatic lipase [1]; 24 mmol/L in R-1): about 7.7

Compound: C[C@H](CCC(=O)NCC(=O)[O-])[C@H]1CC[C@H]2[C@@H]3[C@H](O)C[C@@H]4C[C@H](O)CC[C@]4(C)[C@H]3C[C@H](O)[C@]12C.[Na+] [NaGCA, sodium glycocholate]
- degree of the activation of human pancreatic lipase (human pancreatic lipase [1]): below detection limit

Compound: C[C@H](CCC(=O)NCC(=O)[O-])[C@H]1CC[C@H]2[C@@H]3CC[C@@H]4C[C@H](O)CC[C@]4(C)[C@H]3C[C@H](O)[C@]12C.[Na+] [NaGDCA, sodium glycodeoxycholate]
- lipase activity (Table 1) (human pancreatic lipase [2]; Normal sample 1): 47.1 U/L
- lipase activity relative to (1) comparative example NaDCA (Table 1) (human pancreatic lipase [2]; Normal sample 1): 120.6%
- lipase activity (Table 1) (human pancreatic lipase [2]; Normal sample 2): 91.5 U/L
- lipase activity relative to (1) comparative example NaDCA (Table 1) (human pancreatic lipase [2]; Normal sample 2): 96.3%
- lipase activity (Table 1) (human pancreatic lipase [2]; Normal sample 3): 49.7 U/L
- lipase activity relative to (1) comparative example NaDCA (Table 1) (human pancreatic lipase [2]; Normal sample 3): 106.5%
- lipase activity (Table 1) (human pancreatic lipase [2]; Normal sample 4): 32.9 U/L
- lipase activity relative to (1) comparative example NaDCA (Table 1) (human pancreatic lipase [2]; Normal sample 4): 75.8%
- lipase activity (Table 1) (human pancreatic lipase [2]; Normal sample 5): 36.2 U/L
- lipase activity relative to (1) comparative example NaDCA (Table 1) (human pancreatic lipase [2]; Normal sample 5): 89.0%
- lipase activity (Table 1) (human pancreatic lipase [2]; sample Heparin 1): 39.1 U/L
- lipase activity relative to (1) comparative example NaDCA (Table 1) (human pancreatic lipase [2]; sample Heparin 1): 50.9%
- lipase activity (Table 1) (human pancreatic lipase [2]; sample Heparin 2): 47.5 U/L
- lipase activity relative to (1) comparative example NaDCA (Table 1) (human pancreatic lipase [2]; sample Heparin 2): 54.8%
- lipase activity (Table 1) (human pancreatic lipase [2]; sample Heparin 3): 36.9 U/L
- lipase activity relative to (1) comparative example NaDCA (Table 1) (human pancreatic lipase [2]; sample Heparin 3): 32.7%
- lipase activity (Table 1) (human pancreatic lipase [2]; sample Heparin 4): 28.2 U/L
- lipase activity relative to (1) comparative example NaDCA (Table 1) (human pancreatic lipase [2]; sample Heparin 4): 27.8%
- lipase activity (Table 1) (human pancreatic lipase [2]; sample Heparin 5): 23.8 U/L
- lipase activity relative to (1) comparative example NaDCA (Table 1) (human pancreatic lipase [2]; sample Heparin 5): 34.8%
- lipase activity (Table 1) (human pancreatic lipase [2]; sample Heparin 6): 28.9 U/L
- lipase activity relative to (1) comparative example NaDCA (Table 1) (human pancreatic lipase [2]; sample Heparin 6): 41.8%
- lipase activity (Table 1) (human pancreatic lipase [2]; sample Heparin 7): 58.0 U/L
- lipase activity relative to (1) comparative example NaDCA (Table 1) (human pancreatic lipase [2]; sample Heparin 7): 42.0%
- lipase activity (Table 1) (human pancreatic lipase [2]; sample Heparin 8): 43.9 U/L
- lipase activity relative to (1) comparative example NaDCA (Table 1) (human pancreatic lipase [2]; sample Heparin 8): 34.8%
- lipase activity (Table 1) (human pancreatic lipase [2]; sample Heparin 9): 81.0 U/L
- lipase activity relative to (1) comparative example NaDCA (Table 1) (human pancreatic lipase [2]; sample Heparin 9): 48.0%
- lipase activity (Table 1) (human pancreatic lipase [2]; sample PRECINORM): 52.2 U/L
- lipase activity relative to (1) comparative example NaDCA (Table 1) (human pancreatic lipase [2]; sample PRECINORM): 102.4%
- lipase activity (Table 1) (human pancreatic lipase [2]; sample PRECIPATH): 124.6 U/L
- lipase activity relative to (1) comparative example NaDCA (Table 1) (human pancreatic lipase [2]; sample PRECIPATH): 97.4%

Compound: sodium deoxycholate [NaDCA]
- lipase activity (Table 1) (human pancreatic lipase [2]; Normal sample 1): 39.1 U/L
- lipase activity (Table 1) (human pancreatic lipase [2]; Normal sample 2): 95.0 U/L
- lipase activity (Table 1) (human pancreatic lipase [2]; Normal sample 3): 46.6 U/L
- lipase activity (Table 1) (human pancreatic lipase [2]; Normal sample 4): 43.5 U/L
- lipase activity (Table 1) (human pancreatic lipase [2]; Normal sample 5): 40.7 U/L
- lipase activity (Table 1) (human pancreatic lipase [2]; sample Heparin 1): 76.8 U/L
- lipase activity (Table 1) (human pancreatic lipase [2]; sample Heparin 2): 86.7 U/L
- lipase activity (Table 1) (human pancreatic lipase [2]; sample Heparin 3): 112.9 U/L
- lipase activity (Table 1) (human pancreatic lipase [2]; sample Heparin 4): 101.4 U/L
- lipase activity (Table 1) (human pancreatic lipase [2]; sample Heparin 5): 68.5 U/L
- lipase activity (Table 1) (human pancreatic lipase [2]; sample Heparin 6): 69.2 U/L
- lipase activity (Table 1) (human pancreatic lipase [2]; sample Heparin 7): 138.3 U/L
- lipase activity (Table 1) (human pancreatic lipase [2]; sample Heparin 8): 126.0 U/L
- lipase activity (Table 1) (human pancreatic lipase [2]; sample Heparin 9): 168.8 U/L
- lipase activity (Table 1) (human pancreatic lipase [2]; sample PRECINORM): 51.0 U/L
- lipase activity (Table 1) (human pancreatic lipase [2]; sample PRECIPATH): 128.0 U/L
- pH for giving a maximum value of the activity (apparent optimum pH) (human pancreatic lipase [1]; 24 mmol/L in R-1): about 8.2
- pH for giving a maximum value of the human pancreatic lipase activity (human pancreatic lipase [3]): about 8.2

Compound: C[C@H](CCC(=O)[O-])[C@H]1CC[C@H]2[C@@H]3[C@H](O)C[C@@H]4C[C@H](O)CC[C@]4(C)[C@H]3C[C@H](O)[C@]12C.[Na+] [NaCA, sodium cholate]
- signal of human pancreatic lipase activity (human pancreatic lipase [1]; 24 mmol/L in R-1, compared with NaDCA): merely a slight signal

Compound: C[C@H](CCC(=O)NCCS(=O)(=O)[O-])[C@H]1CC[C@H]2[C@@H]3[C@@H](O)C[C@@H]4C[C@H](O)CC[C@]4(C)[C@H]3CC[C@]12C.[Na+] [NaTUDCA, sodium tauroursodeoxycholate]
- degree of the activation of human pancreatic lipase (human pancreatic lipase [1]): below detection limit

Compound: C[C@H](CCC(=O)NCCS(=O)(=O)O)[C@H]1CC[C@H]2[C@@H]3[C@H](O)C[C@@H]4C[C@H](O)CC[C@]4(C)[C@H]3C[C@H](O)[C@]12C [NaTCA, sodium taurocholate]
- degree of the activation of human pancreatic lipase (human pancreatic lipase [1]): below detection limit

Compound: C[C@H](CCC(=O)NCCS(=O)(=O)[O-])[C@H]1CC[C@H]2[C@@H]3[C@@H](O)C[C@@H]4C[C@H](O)CC[C@]4(C)[C@H]3CC[C@]12C.[Na+] [NaTCDCA, sodium taurochenodeoxycholate]
- lipase activity (Table 2) (human pancreatic lipase [2]; sample Heparin 1): 54.5 U/L
- lipase activity (Table 2) (human pancreatic lipase [2]; sample Heparin 2): 31.7 U/L
- lipase activity (Table 2) (human pancreatic lipase [2]; sample Heparin 3): 48.1 U/L
